The results in this text go back to US8906925B2, “Pyrido[4,3-B]indoles containing rigid moieties” (Medivation Technologies, Inc., priority 2008, dated 2014).

Where two headings read alike, the source gives them in different places.

The target in assay [1] is histamine receptor H1 (Homo sapiens, UniProt P35367). Nature of the assay: Histamine H1 radioligand binding ([3H]Pyrilamine). Conditions: read-out: Histamine Binding (1 μM) H1, percent inhibition of specific binding, 1 μM. The gist of the method: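 Values are percent inhibition of specific [3H]pyrilamine (1.2 nM) binding with compounds at ≤1 μM (1% DMSO vehicle); 180 min incubation at 25 °C, pH 7.4 Tris buffer, on CHO-expressed human H1 receptor; 1 μM pyrilamine defined nonspecific binding, bound ligand counted after filtration.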
Chain of histamine receptor H1 (P35367 whole entry): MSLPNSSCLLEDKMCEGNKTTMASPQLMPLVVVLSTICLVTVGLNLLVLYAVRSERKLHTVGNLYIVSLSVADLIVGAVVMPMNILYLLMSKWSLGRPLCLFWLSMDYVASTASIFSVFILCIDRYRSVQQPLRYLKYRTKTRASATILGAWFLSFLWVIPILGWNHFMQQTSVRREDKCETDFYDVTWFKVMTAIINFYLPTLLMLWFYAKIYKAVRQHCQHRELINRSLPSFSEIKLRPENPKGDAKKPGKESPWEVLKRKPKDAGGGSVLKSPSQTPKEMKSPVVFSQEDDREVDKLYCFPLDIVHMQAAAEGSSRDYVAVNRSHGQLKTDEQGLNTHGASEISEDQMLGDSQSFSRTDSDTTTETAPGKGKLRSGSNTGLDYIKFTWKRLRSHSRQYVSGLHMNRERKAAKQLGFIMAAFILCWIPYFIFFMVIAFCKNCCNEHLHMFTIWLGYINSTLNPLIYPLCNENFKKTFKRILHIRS

Assay [2] addresses T1, human recombinant histamine H2 receptor (Homo sapiens, UniProt P25021).
T1 construct: expressed in transfected cells; host or cells: Chinese hamster ovary (CHO) K1 cells
Kind of assay: Histamine H2 radioligand binding ([125I]Aminopotentidine). Conditions: read-out: Histamine Binding (1 μM) H2, percent inhibition of specific binding, 1 μM. The method, then: To evaluate in radioligand binding assays the activity of compounds of the invention, human recombinant histamine H2 receptor expressed in Chinese hamster ovary (CHO) K1 cells (Ruat, M., Proc. Natl. Acad. Sci. USA. 87(5):1658, 1990) in a 50 mM Phosphate buffer, pH 7.4 was used. Compounds of the invention were incubated with 0.1 nM [^125I]Aminopotentidine for 120 min. at 25° C. Non-specific binding was estimated in the presence of 3 μM Tiotidine. Receptor proteins were filtered and washed, the filters were then counted to determine [^125I]Aminopotentidine specifically bound.

Assay [3] deals with human dopamine D2L receptor (Homo sapiens, UniProt P14416). Kind of assay: Dopamine D2L radioligand binding ([3H]Spiperone). Conditions: compound at 1 μM. An excerpt:
Non-specific binding was estimated in the presence of […] Haloperidol. Receptor proteins were filtered and washed, the filters were then counted to determine [^3H]Spiperone specifically bound. […] Biochemical assay results are presented as the percent inhibition of specific binding in Table 9.

The target in assay [4] is T2, human recombinant serotonin (5-Hydroxytryptamine) 5-HT2A receptor (Homo sapiens, UniProt P28223).
T2 construct: expressed in transfected cells; host or cells: Chinese hamster ovary (CHO-K1) cells
T2 sequence (P28223 whole entry): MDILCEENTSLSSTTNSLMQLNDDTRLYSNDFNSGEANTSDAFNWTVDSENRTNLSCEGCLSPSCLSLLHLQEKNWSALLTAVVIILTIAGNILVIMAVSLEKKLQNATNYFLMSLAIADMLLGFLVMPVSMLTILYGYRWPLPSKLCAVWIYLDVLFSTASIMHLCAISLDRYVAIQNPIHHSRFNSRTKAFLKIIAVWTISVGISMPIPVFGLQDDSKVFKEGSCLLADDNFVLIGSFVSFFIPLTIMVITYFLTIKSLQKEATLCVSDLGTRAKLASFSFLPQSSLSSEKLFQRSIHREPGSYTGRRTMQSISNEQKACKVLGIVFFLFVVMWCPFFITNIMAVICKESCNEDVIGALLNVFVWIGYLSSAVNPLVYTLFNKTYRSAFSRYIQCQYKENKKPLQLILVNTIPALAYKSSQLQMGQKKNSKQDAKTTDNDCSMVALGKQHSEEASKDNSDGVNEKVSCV
Nature of the assay: Serotonin 5-HT2A radioligand binding ([3H]Ketanserin). Particulars: read-out: Inhibition of ligand binding, Serotonin 5-HT2A (percent inhibition of specific binding), compound at 1 μM. The method, then:
Compounds of the invention were incubated with 0.5 nM [^3H]Ketanserin for 60 min. at 25° C. Non-specific binding was estimated in the presence of 1 μM Mianserin. Receptor proteins were filtered and washed, the filters were then counted to determine [^3H]Ketanserin specifically bound.

For assay [5], the target named is T3, human recombinant serotonin (5-Hydroxytryptamine) 5-HT2C receptor (Homo sapiens, UniProt P28335).
T3 construct: expressed in transfected cells; host or cells: Chinese hamster ovary (CHO-K1) cells
T3 sequence (P28335 33-458): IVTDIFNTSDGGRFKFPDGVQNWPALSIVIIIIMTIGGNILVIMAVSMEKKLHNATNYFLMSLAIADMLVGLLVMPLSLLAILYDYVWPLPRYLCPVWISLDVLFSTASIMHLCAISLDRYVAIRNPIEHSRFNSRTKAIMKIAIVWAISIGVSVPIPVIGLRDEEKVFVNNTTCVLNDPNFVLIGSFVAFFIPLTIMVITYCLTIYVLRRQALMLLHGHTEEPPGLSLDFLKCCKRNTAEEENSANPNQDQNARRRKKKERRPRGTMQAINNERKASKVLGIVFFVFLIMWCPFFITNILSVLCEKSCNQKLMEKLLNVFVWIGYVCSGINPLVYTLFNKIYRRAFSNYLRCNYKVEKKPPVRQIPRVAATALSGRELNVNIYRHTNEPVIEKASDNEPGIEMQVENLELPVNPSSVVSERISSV
Kind of assay: Serotonin 5-HT2C radioligand binding ([3H]Mesulergine). Particulars: compound at 1 μM; read-out: Inhibition of ligand binding, Serotonin 5-HT2C (percent inhibition of specific binding). The gist of the method:
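Compounds tested at 1 μM or lower (1% DMSO vehicle) for displacement of 1 nM [3H]Mesulergine over 60 min at 25° C. Specific binding determined by filtration counting, with 1 μM Mianserin defining non-specific binding; values are percent inhibition.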

In assay [6] the target is T4, human recombinant serotonin (5-Hydroxytryptamine) 5-HT6 receptor (Homo sapiens, UniProt P50406).
T4 construct: expressed in transfected cells; host or cells: human HeLa cells
T4 sequence (P50406 whole entry): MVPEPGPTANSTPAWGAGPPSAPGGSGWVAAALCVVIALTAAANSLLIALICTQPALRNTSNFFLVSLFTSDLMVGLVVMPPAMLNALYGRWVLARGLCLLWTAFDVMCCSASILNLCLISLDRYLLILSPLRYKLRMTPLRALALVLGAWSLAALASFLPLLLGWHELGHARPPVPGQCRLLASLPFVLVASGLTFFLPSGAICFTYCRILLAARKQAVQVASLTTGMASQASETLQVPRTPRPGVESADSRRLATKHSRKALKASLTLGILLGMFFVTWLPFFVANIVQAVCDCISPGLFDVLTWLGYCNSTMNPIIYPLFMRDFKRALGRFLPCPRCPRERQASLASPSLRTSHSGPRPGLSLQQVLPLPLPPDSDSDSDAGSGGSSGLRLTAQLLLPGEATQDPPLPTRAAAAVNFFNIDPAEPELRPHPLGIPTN
Nature of the assay: Serotonin 5-HT6 radioligand binding ([3H]LSD). Particulars: compound at 1 μM; read-out: Inhibition of ligand binding, Serotonin 5-HT6 (percent inhibition of specific binding). The method, then:
Compounds of the invention were incubated with 1.5 nM [3H]Lysergic acid diethylamide (LSD) for 120 min. at 37° C. […] Receptor proteins were filtered and washed, the filters were then counted to determine [3H]LSD specifically bound. Compounds were screened at 1 μM or lower, using 1% DMSO as vehicle. Biochemical assay results are presented as the percent inhibition of specific binding in Table 10.

In assay [7] the target is human recombinant serotonin (5-Hydroxytryptamine) 5-HT7 receptor (Homo sapiens, UniProt P34969). Nature of the assay: Serotonin 5-HT7 radioligand binding ([3H]LSD). Particulars: compound at 1 μM; read-out: Inhibition of ligand binding, Serotonin 5-HT7 (percent inhibition of specific binding). An excerpt: Receptor proteins were filtered and washed, the filters were then counted to determine [^3H]LSD specifically bound.
Chain of human recombinant serotonin (5-Hydroxytryptamine) 5-HT7 receptor (P34969 whole entry): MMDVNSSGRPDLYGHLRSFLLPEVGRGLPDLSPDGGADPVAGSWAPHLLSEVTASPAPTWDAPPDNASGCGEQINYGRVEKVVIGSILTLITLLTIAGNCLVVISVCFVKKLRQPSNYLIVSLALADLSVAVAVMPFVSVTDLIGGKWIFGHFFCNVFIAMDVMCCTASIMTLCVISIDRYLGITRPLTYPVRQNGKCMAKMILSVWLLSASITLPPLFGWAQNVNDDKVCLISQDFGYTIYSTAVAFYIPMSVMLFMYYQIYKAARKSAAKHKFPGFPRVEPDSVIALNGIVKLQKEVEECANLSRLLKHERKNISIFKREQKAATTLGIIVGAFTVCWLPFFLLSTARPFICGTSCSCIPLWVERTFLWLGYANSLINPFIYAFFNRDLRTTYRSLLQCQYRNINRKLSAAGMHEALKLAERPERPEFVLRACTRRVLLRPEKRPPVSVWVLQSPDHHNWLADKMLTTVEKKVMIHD

The mark [8] stands for this setting: […] [3H]Spiperone, read-out: Inhibition of ligand binding, Dopamine D2L (percent inhibition of specific binding).
Where [9] appears, read: percent inhibition of specific binding, read-out: Inhibition of ligand binding, Dopamine D2L.

T1 sequence (P25021 whole entry): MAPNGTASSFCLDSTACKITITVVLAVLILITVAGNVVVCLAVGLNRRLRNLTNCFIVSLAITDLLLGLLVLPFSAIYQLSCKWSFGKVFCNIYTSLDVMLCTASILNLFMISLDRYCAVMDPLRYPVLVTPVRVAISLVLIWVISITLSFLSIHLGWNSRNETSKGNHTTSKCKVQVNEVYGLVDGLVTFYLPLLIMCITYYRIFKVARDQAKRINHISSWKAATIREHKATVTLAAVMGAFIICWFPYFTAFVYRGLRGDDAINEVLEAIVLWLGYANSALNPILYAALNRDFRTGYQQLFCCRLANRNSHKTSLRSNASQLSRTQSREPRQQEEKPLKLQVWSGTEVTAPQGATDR
Chain of human dopamine D2L receptor (P14416 whole entry): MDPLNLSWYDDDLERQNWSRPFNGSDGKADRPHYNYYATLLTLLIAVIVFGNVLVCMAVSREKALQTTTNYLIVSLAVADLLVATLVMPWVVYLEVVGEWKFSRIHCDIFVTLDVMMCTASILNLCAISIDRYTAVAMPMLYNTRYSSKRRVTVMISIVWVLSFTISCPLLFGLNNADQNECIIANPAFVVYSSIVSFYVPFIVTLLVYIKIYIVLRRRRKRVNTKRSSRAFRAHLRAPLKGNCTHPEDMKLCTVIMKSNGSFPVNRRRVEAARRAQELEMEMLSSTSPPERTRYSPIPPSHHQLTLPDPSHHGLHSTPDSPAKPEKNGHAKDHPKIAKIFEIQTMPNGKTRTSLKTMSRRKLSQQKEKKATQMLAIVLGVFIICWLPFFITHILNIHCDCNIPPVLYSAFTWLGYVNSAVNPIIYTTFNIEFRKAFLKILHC

As for `C=C(Cn1c2c(c3cc(C)ccc31)CN(C)CC2)c1ccc(O)cc1` [Compound No. 355, 4-(3-(2,8-dimethyl-3,4-dihydro-1H-pyrido[4,3-b]indol-5(2H)-yl)prop-1-en-2-yl)phenol], the inhibition (usually the change of the read-out against control, counted positive when it falls) at 1 µM in assay [1] was 116%; in assay [2], 93%; in assay [3] (setting [8]), 81%; in assay [4] it was 92%; in assay [5] it was 99%; in assay [6], 101%. Also, the inhibition at 1 µM in assay [7] stood at 92%.

With `C/C(=C/n1c2c(c3cc(Cl)c(Cl)cc31)CN(C)CC2)c1ccncc1` [Compound 244, (Z)-7,8-dichloro-2-methyl-5-(2-(pyridin-4-yl)prop-1-enyl)-2,3,4,5-tetrahydro-1H-pyrido[4,3-b]indole], the inhibition at 1 µM in assay [1] came out at 87%; in assay [2], 88%; in assay [3] (setting [9]), 86%; in assay [4] it was 103%; in assay [5] it was 99%; in assay [6], 106%. The inhibition at 1 µM in assay [7] stood at 99%.

Regarding `C/C(=C\n1c2c(c3cc(Cl)ccc31)CN(C)CC2)c1cccc(F)c1` [Compound 234, (E)-8-chloro-5-(2-(3-fluorophenyl)prop-1-enyl)-2-methyl-2,3,4,5-tetrahydro-1H-pyrido[4,3-b]indole], the inhibition at 1 µM in assay [1] came to 69%; in assay [2], 94%; in assay [3] (setting [9]), 73%; in assay [4] it was 100%; in assay [5], 102%; in assay [6], 101%. Moreover, the inhibition at 1 µM in assay [7] was found to be 99%.

Consider `C=C(Cn1c2c(c3cccc(Cl)c31)CN(C)CC2)c1ccc(F)cc1` [Compound No. 354, 6-chloro-5-(2-(4-fluorophenyl)allyl)-2-methyl-2,3,4,5-tetrahydro-1H-pyrido[4,3-b]indole], for which the inhibition at 1 µM in assay [1] amounted to 86%; in assay [2], 97%; in assay [3] (setting [8]), 98%; in assay [4], 100%; in assay [5] it was 101%; in assay [6], 103%. In addition, the inhibition at 1 µM in assay [7] was found to be 75%.

On to `C/C(=C/n1c2c(c3cc(C)ccc31)CN(C)CC2)c1cc(F)c(F)cc1Cl` [Compound 220, (Z)-5-(2-(2-chloro-4,5-difluorophenyl)prop-1-enyl)-2,8-dimethyl-2,3,4,5-tetrahydro-1H-pyrido[4,3-b]indole], for which the inhibition at 1 µM came out at 91% in assay [1]; 99% in assay [2]; 32% in assay [3] (setting [9]); 99% in assay [4]; 98% in assay [5]; 99% in assay [6]. Further, in assay [7], the inhibition at 1 µM was 104%.

With `C/C(=C\n1c2c(c3cc(Cl)ccc31)CN(C)CC2)c1ccc(F)c(F)c1` [Compound 98, (E)-8-chloro-5-(2-(3,4-difluorophenyl)prop-1-enyl)-2,3,4,5-tetrahydro-2-methyl-1H-pyrido[4,3-b]indole], the inhibition at 1 µM in assay [1] was 53%; in assay [2], 99%; in assay [3] (setting [9]), 78%; in assay [4], 95%; in assay [5], 100%; in assay [6], 100%. In assay [7], the inhibition at 1 µM came to 94%.

For `C/C(=C/n1c2c(c3cc(Cl)ccc31)CN(C)CC2)c1cc(F)c(F)cc1Cl` [Compound 240, (Z)-8-chloro-5-(2-(2-chloro-4,5-difluorophenyl)prop-1-enyl)-2-methyl-2,3,4,5-tetrahydro-1H-pyrido[4,3-b]indole], the inhibition at 1 µM is 95% in assay [1]; 99% in assay [2]; 34% in assay [3] (setting [9]); 99% in assay [4]; 99% in assay [5]; 104% in assay [6]. Also, the inhibition at 1 µM in assay [7] turned out to be 99%.

As for `Cc1ccc(C#Cn2c3c(c4cc(Cl)ccc42)CN(C)CC3)cn1` [Compound No. 484, 8-chloro-2-methyl-5-((6-methylpyridin-3-yl)ethynyl)-2,3,4,5-tetrahydro-1H-pyrido[4,3-b]indole], the inhibition at 1 µM in assay [1] is 6%; in assay [2] it was 77%; in assay [3] (setting [8]), -4%; in assay [4] it was 98%; in assay [5], 95%; in assay [6], 34%. In addition, in assay [7], the inhibition at 1 µM stood at 83%.

In the case of `C/C(=C/n1c2c(c3cc(Cl)ccc31)CN(C)CC2)c1cccc(F)c1` [Compound 233, (Z)-8-chloro-5-(2-(3-fluorophenyl)prop-1-enyl)-2-methyl-2,3,4,5-tetrahydro-1H-pyrido[4,3-b]indole], the inhibition at 1 µM turned out to be 85% in assay [1]; 99% in assay [2]; 48% in assay [3] (setting [9]); 97% in assay [4]; 101% in assay [5]; 102% in assay [6]. Moreover, the inhibition at 1 µM in assay [7] turned out to be 95%.

In the case of `C/C(=C\n1c2c(c3c(Cl)c(Cl)ccc31)CN(C)CC2)c1ccncc1` [Compound 245, (E)-8,9-dichloro-2-methyl-5-(2-(pyridin-4-yl)prop-1-enyl)-2,3,4,5-tetrahydro-1H-pyrido[4,3-b]indole], the inhibition at 1 µM turned out to be 60% in assay [1]; 71% in assay [2]; 92% in assay [3] (setting [9]); 102% in assay [4]; 96% in assay [5]; 103% in assay [6]. In assay [7], the inhibition at 1 µM came out at 74%.

`C/C(=C\n1c2c(c3cc(Cl)ccc31)CN(C)CC2)c1cccnc1` [Compound 86, (E)-8-chloro-2,3,4,5-tetrahydro-2-methyl-5-(2-(pyridin-3-yl)prop-1-enyl)-1H-pyrido[4,3-b]indole]: the inhibition at 1 µM is 72% in assay [1]; 54% in assay [2]; 40% in assay [3] (setting [9]); 95% in assay [4]; 94% in assay [5]; 77% in assay [6]. In assay [7], the inhibition at 1 µM came out at 93%.

Regarding `COc1ccc2c(c1)c1c(n2CC(C)(O)c2ccncc2)CCN(C)C1` (stereo not drawn) [Compound 188, 1-(8-methoxy-2-methyl-3,4-dihydro-1H-pyrido[4,3-b]indol-5(2H)-yl)-2-(pyridin-4-yl)propan-2-ol], the inhibition at 1 µM in assay [1] was 8%; in assay [2] it was 13%; in assay [3] (setting [9]), -5%; in assay [4], 50%; in assay [5], 66%; in assay [6] it was 9%. Further, in assay [7], the inhibition at 1 µM was determined as 45%.
